Test system: Plasmodium berghei
Experiment: Luciferase/luciferin-expressing antifolate-resistant parasites were used to infect a culture of HepG2 cells that were pre-incubated with compounds. Infected hepatocytes emit light due to the luciferase reaction. Assay results are presented as the percent inhibition of light emission compared to control. […]
Format: functional
Conditions: sporozoite; for IC90: read-out: LUCIFERASE INFECTION ASSAY - IC90
[1] = read-out: LUCIFERASE INFECTION ASSAY - IC50

| Compound | IC90 [µM] | IC50 [1] [µM] | also measured |
| --- | --- | --- | --- |
| Cc1ccc(-c2csc3[nH]c(CNC(C)c4ccc5c(c4)CCCC5)nc(=O)c23)s1 (configuration not stated) | > 10 |  | IC50 (FFLUC_HILL_SLOPE 13.5, FFLUC_R_SQUARED 0.414, HEPG2TOX_HILL_SLOPE 0.395, HEPG2TOX_R_SQUARED 0.365, read-out: LUCIFERASE INFECTION ASSAY - IC50): > 10 µM |
| CCCc1ccc(-c2nc(-c3ccccc3)no2)cc1 | 0.0999 |  | IC50 (FFLUC_HILL_SLOPE 35.1, FFLUC_R_SQUARED 0.438, PBLUC_HILL_SLOPE 1.27, PBLUC_R_SQUARED 0.957, read-out: LUCIFERASE INFECTION ASSAY - IC50): 0.0177 µM |
| CCOc1ccc(/C=C/C2=Cc3c(sc(NC(=O)COC(=O)c4cccc(S(=O)(=O)N5CCc6ccccc65)c4)c3C#N)C(C)(C)C2)cc1 | > 10 |  | IC50 (FFLUC_HILL_SLOPE 15.6, FFLUC_R_SQUARED 0.606, read-out: LUCIFERASE INFECTION ASSAY - IC50): > 10 µM |
| CN(Cc1nc2ccccc2s1)C(=O)CSc1nnc(N2CCCCC2)n1-c1ccccc1 | > 10 | > 10 |  |
| Cc1cccc(C=C(C(=O)Nc2ccccc2Cl)C(=O)Nc2ccccc2Cl)c1 | > 10 | > 10 |  |
| Cc1cc(C(=O)NCC#Cc2cccc(C(F)(F)F)c2)on1 | 8.21 |  | IC50 (PBLUC_HILL_SLOPE 5.05, PBLUC_R_SQUARED 0.342, read-out: LUCIFERASE INFECTION ASSAY - IC50): 5.32 µM |
| COc1ccc(-n2c(C)cc(/C=C(\C#N)C(=O)NCc3nnc4ccccn34)c2C)cc1 | 9.17 |  | IC50 (PBLUC_HILL_SLOPE 14.5, PBLUC_R_SQUARED 0.61, read-out: LUCIFERASE INFECTION ASSAY - IC50): 7.88 µM |
| Cc1cc(=O)n2nc(C(F)(F)F)n(CC(=O)Nc3ccc(Sc4ccc(C)c(C)c4)cc3)c2c1 | > 10 | > 10 |  |
| CCS(=O)(=O)N1CCC(C(=O)Nc2nc3ccc(Oc4ccccc4)cc3s2)CC1 | > 10 |  | IC50 (HEPG2TOX_HILL_SLOPE 0.324, HEPG2TOX_R_SQUARED 0.65, PBLUC_HILL_SLOPE 2.34, PBLUC_R_SQUARED 0.492, read-out: LUCIFERASE INFECTION ASSAY - IC50): 5.6 µM |
| CCOC(=O)CSCc1noc(COc2ccc(Cl)cc2Cl)n1 | 0.26 |  | IC50 (PBLUC_HILL_SLOPE 0.923, PBLUC_R_SQUARED 0.877, read-out: LUCIFERASE INFECTION ASSAY - IC50): 0.0241 µM |
| COc1ccc(-c2cnc3cnc(-c4cccc(OC)c4F)cn23)cc1 | 4.49 |  | IC50 (HEPG2TOX_HILL_SLOPE 1.94, HEPG2TOX_R_SQUARED 0.943, PBLUC_HILL_SLOPE 2.65, PBLUC_R_SQUARED 0.707, read-out: LUCIFERASE INFECTION ASSAY - IC50): 1.96 µM |
| CCN1CCN(c2ccc(S(=O)(=O)N3CCOCC3)cc2NC(=O)/C=C/c2ccc([N+](=O)[O-])cc2)CC1 | > 10 |  | IC50 (PBLUC_HILL_SLOPE 11, PBLUC_R_SQUARED 0.478, read-out: LUCIFERASE INFECTION ASSAY - IC50): 8.35 µM |
| OC[C@H]1O[C@@H](c2nc3cc(-c4nc(-c5ccccc5F)no4)ccc3[nH]2)C[C@@H]1O | 2.9 |  | IC50 (PBLUC_HILL_SLOPE 37.1, PBLUC_R_SQUARED 0.287, read-out: LUCIFERASE INFECTION ASSAY - IC50): 2.73 µM |
| NC(=O)c1c(NC(=O)COC(=O)C2=NN(c3ccccc3)C(=O)CC2)sc2c1CCC2 | > 10 | > 10 |  |
| COc1ccccc1CNc1ncnc2scc(-c3ccccc3)c12 | > 10 |  | IC50 (PBLUC_HILL_SLOPE 3.56, PBLUC_R_SQUARED 0.13, read-out: LUCIFERASE INFECTION ASSAY - IC50): 5.66 µM |
| O=C(Nc1ccccc1)c1ccc(C#Cc2ccccc2)o1 | > 11.5 | > 11.5 |  |
| Fc1ccccc1-c1cnn2c(NCc3cccs3)ccnc12 | > 10.2 |  | IC50 (FFLUC_HILL_SLOPE 1.17, FFLUC_R_SQUARED 0.682, PBLUC_HILL_SLOPE 0.51, PBLUC_R_SQUARED 0.639, read-out: LUCIFERASE INFECTION ASSAY - IC50): 0.238 µM |
| O=C(CNc1ccccc1-c1ccccc1)Nc1cc(Cl)ccc1F | > 10 | > 10 |  |
| CCC1CCc2sc(C(=O)NCCc3ccccn3)cc2C1 (configuration not stated) | > 10 |  | IC50 (PBLUC_HILL_SLOPE 5.05, PBLUC_R_SQUARED 0.237, read-out: LUCIFERASE INFECTION ASSAY - IC50): 7.77 µM |
| CN(C)c1ncnc2scc(-c3ccc(Cl)cc3)c12 | > 11.4 | 4.05 |  |
| O=C(Cc1cc(Cl)c2c(c1)OCCCO2)NCc1ccco1 | > 10 | 6.35 |  |
| O=C(c1cnc2cc3c(cc2c1)OCCCO3)c1ccccc1O | 5.25 |  | IC50 (FFLUC_HILL_SLOPE 1.6, FFLUC_R_SQUARED 0.767, HEPG2TOX_HILL_SLOPE 8.36, HEPG2TOX_R_SQUARED 0.65, PBLUC_HILL_SLOPE 1.47, PBLUC_R_SQUARED 0.802, read-out: LUCIFERASE INFECTION ASSAY - IC50): 1.17 µM |
| Cc1ccccc1/C=N/NC(N)=S | > 17.1 |  | IC50 (HEPG2TOX_HILL_SLOPE 1.52, HEPG2TOX_R_SQUARED 0.966, read-out: LUCIFERASE INFECTION ASSAY - IC50): > 17.1 µM |

| Compound | IC90 [µM] | IC50 [1] [µM] | also measured |
| --- | --- | --- | --- |
| O=C(c1ccco1)N1CCc2nc(NCc3cccc(Cl)c3)ncc2C1 | 8.86 |  | IC50 (PBLUC_HILL_SLOPE 14.7, PBLUC_R_SQUARED 0.24, read-out: LUCIFERASE INFECTION ASSAY - IC50): 7.63 µM |
| COCCn1cnc2c1c(=O)n(CC(=O)NC1(C#N)CCCCCC1)c(=O)n2CC(C)C | > 10 | > 10 |  |
| Cc1cc(NC(=O)COc2ccc(C(C)C)cc2)no1 | > 12 | > 12 |  |
| CC(C)c1ccc(/C=N/NC(=O)CC#N)cc1 | > 14.4 | > 14.4 |  |
| O=[N+]([O-])c1cccc(-c2nnc3c4ccccc4nc(C(F)(F)F)n23)c1 | > 9.19 |  | IC50 (HEPG2TOX_HILL_SLOPE 7.76, HEPG2TOX_R_SQUARED 0.363, PBLUC_HILL_SLOPE 1.91, PBLUC_R_SQUARED 0.781, read-out: LUCIFERASE INFECTION ASSAY - IC50): 4.42 µM |
| CN(C)c1ccc(-c2cnc3cnc(-c4cnn(Cc5ccccc5)c4)cn23)cc1 | > 8.37 |  | IC50 (FFLUC_HILL_SLOPE 6.21, FFLUC_R_SQUARED 0.0566, PBLUC_HILL_SLOPE 1.47, PBLUC_R_SQUARED 0.566, read-out: LUCIFERASE INFECTION ASSAY - IC50): 3.91 µM |
| COc1ccc(NC(=O)c2cccc(C3(CNc4ccccc4)CC3)c2)cn1 | > 10 | > 10 |  |
| O=C(COc1ccccc1SCc1ccc(Cl)cc1)NNC(=O)c1cccc(C(F)(F)F)c1 | > 6.67 | > 6.67 |  |
| CC(C)(C)c1cc(C(=O)NNC(=O)Nc2cccc(C(F)(F)F)c2)n(Cc2ccccc2)n1 | > 7.18 | > 7.18 |  |
| COC(=O)c1ccc2c(=O)n(-c3ccccc3)c(SC3CCCCC3=O)nc2c1 (configuration not stated) | > 10 | > 10 |  |
| COc1ccc(-c2nc3ccccc3n2-c2cc(-c3ccccc3)nn2-c2ccccc2)cc1 | 8.43 |  | IC50 (FFLUC_HILL_SLOPE 12.7, FFLUC_R_SQUARED 0.403, HEPG2TOX_HILL_SLOPE 1.43, HEPG2TOX_R_SQUARED 0.399, PBLUC_HILL_SLOPE 4.08, PBLUC_R_SQUARED 0.666, read-out: LUCIFERASE INFECTION ASSAY - IC50): 4.92 µM |
| CC(Nc1ncnc2ccsc12)c1nc2ccccc2n1C(F)F (configuration not stated) | 7.92 |  | IC50 (HEPG2TOX_HILL_SLOPE 1.22, HEPG2TOX_R_SQUARED 0.959, PBLUC_HILL_SLOPE 2.24, PBLUC_R_SQUARED 0.732, read-out: LUCIFERASE INFECTION ASSAY - IC50): 2.97 µM |
| c1cnc2ccc(-c3cnc4cnc(-c5ccsc5)cn34)cc2c1 | > 10 |  | IC50 (HEPG2TOX_HILL_SLOPE 5.76, HEPG2TOX_R_SQUARED 0.0288, PBLUC_HILL_SLOPE 1.24, PBLUC_R_SQUARED 0.576, read-out: LUCIFERASE INFECTION ASSAY - IC50): 3.87 µM |
| Cc1nc(Sc2nnnn2-c2ccccc2)c2c3c(sc2n1)CCC3 | > 10 |  | IC50 (HEPG2TOX_HILL_SLOPE 9.14, HEPG2TOX_R_SQUARED 0.239, read-out: LUCIFERASE INFECTION ASSAY - IC50): > 10 µM |
| Cc1nc(-c2ccc(CNC(=O)COc3ccccc3-c3ccccc3)o2)cs1 | > 10 | > 10 |  |
| CN1CCN(c2nc(-c3c(-c4ccc(F)cc4)[nH]c4ccccc34)cs2)CC1 | > 10 | > 10 |  |
| O=C(COC(=O)c1ccc2ccccc2c1)c1cc2c3c(c1)CC(=O)N3CCC2 | > 10 |  | IC50 (FFLUC_HILL_SLOPE 2.44, FFLUC_R_SQUARED 0.438, read-out: LUCIFERASE INFECTION ASSAY - IC50): > 10 µM |
| Cc1cc(C(=O)CSc2nnc3n2CCCCC3)c(C)n1Cc1ccc2c(c1)OCO2 | > 10 | > 10 |  |
| CCOC(=O)/C=c1\s/c(=C\c2ccc(Cl)cc2)c(=O)n1CC(=O)c1ccc(Cl)cc1 | > 10 | > 10 |  |
| CCOC(=O)c1c(C)nn(-c2ccc(NC(=O)c3cccs3)cc2)c1C | 5.59 |  | IC50 (PBLUC_HILL_SLOPE 1.61, PBLUC_R_SQUARED 0.613, read-out: LUCIFERASE INFECTION ASSAY - IC50): 1.43 µM |
| CC(=O)Nc1cccc(-c2cnc3ccc(-c4ccc(S(C)(=O)=O)cc4)nn23)c1 | 9.62 |  | IC50 (HEPG2TOX_HILL_SLOPE 0.982, HEPG2TOX_R_SQUARED 0.906, PBLUC_HILL_SLOPE 3.7, PBLUC_R_SQUARED 0.22, read-out: LUCIFERASE INFECTION ASSAY - IC50): 5.31 µM |
| COC(=O)c1ccc(C(=O)Nc2nc3ccc(C)cn3c2C(=O)NC2CCCCC2)cc1 | > 7.6 |  | IC50 (HEPG2TOX_HILL_SLOPE 6.71, HEPG2TOX_R_SQUARED 0.117, PBLUC_HILL_SLOPE 12.8, PBLUC_R_SQUARED 0.0177, read-out: LUCIFERASE INFECTION ASSAY - IC50): 7.03 µM |
| CCNC(=O)CNC(=O)c1ccc(C(C)(C)C)cc1 | > 10 | > 10 |  |
